In the experiment the target is T1, Cytochrome P450 11B1, mitochondrial (Homo sapiens, UniProt P15538).
T1 sequence (P15538 whole entry): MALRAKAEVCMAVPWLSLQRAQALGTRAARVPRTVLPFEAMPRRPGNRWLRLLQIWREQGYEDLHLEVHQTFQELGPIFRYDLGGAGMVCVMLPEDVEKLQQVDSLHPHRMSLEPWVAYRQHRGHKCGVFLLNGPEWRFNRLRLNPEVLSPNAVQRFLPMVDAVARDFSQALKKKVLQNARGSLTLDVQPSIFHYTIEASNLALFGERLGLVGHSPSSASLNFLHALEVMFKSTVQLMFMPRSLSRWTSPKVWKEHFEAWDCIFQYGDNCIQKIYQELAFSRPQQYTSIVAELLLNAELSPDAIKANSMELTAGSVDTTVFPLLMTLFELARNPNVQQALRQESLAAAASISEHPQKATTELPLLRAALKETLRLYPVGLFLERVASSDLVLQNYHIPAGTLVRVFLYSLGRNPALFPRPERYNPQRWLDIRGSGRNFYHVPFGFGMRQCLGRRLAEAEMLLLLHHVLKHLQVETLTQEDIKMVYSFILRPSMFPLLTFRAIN

A word on the IC50: it is the midpoint of a concentration-inhibition curve. For `CC(=O)N1CCc2cc(-c3cncc(F)c3C)cc(Cl)c21` [US9745282, 8], inhibition was half-maximal at 0.27 µM (IC50). Compound `O=C(N1CCc2cc(-c3cncc(F)c3)cc(F)c21)C(F)(F)F` [US9745282, 33] came in with an IC50 of 1.41 µM. In the case of `CC(=O)N1CCc2cc(-c3cnccc3C)cc(F)c21` [US9745282, 15], the IC50 was 0.068 µM. As for `O=C(N1CCc2cc(-c3cncc(F)c3)cc(Cl)c21)C(F)(F)F` [US9745282, 32], the figure is 0.525 µM; as for `CC(C)C(=O)N1CCc2cc(-c3cncc4ccccc34)ccc21` [US9745282, 30], 3.72 µM.

The values above are taken from BindingDB's records for patent US9745282 (Merck Sharp & Dohme Corp, 2017).
